Measured values published in PMC10716780, “The multistep oxidation of cholesterol to pregnenolone by human cytochrome P450 11A1 is highly processive” (The Journal of Biological Chemistry, 2023).

Molecular target: T1, human P450 11A1 (Homo sapiens, UniProt P05108)
T1 sequence (P05108 41-521 limits assumed): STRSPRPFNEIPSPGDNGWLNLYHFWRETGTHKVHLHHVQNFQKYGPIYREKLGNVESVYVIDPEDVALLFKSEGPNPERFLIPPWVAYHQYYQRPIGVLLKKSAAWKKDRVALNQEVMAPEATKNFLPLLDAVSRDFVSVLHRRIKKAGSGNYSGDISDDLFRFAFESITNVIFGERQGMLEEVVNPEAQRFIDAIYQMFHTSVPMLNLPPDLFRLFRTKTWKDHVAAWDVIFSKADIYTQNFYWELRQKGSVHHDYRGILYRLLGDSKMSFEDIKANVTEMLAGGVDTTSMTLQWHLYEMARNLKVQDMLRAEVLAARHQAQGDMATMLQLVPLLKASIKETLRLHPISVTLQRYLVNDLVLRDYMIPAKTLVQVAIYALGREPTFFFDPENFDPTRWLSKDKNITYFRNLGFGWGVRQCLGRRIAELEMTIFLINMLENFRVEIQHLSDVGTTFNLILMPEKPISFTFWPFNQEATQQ
T1 sequence (P00257 59-186 partner): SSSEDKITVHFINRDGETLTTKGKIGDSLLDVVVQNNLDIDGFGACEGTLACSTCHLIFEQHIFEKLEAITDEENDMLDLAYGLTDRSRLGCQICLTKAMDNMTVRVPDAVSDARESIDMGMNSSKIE
Assay: Single-turnover kinetics of P450 11A1 with [1,2-3H]-cholesterol (radio-HPLC)
Assay type: biochemical
Set-up: M A S T R S P R P F N E I P S P G D N; Met-Ala (N-terminal start residues in place of the transit peptide and Ile40) (N); made in house; host or cells: E. coli (P450 11A1 in C41(DE3); Adx and AdR in E. coli)
Protocol: In this reaction, a 5 μM complex of P450 11A1 and 4.5 μM cholesterol was assembled, and Adx was added at either equimolar (low, 5 μM) or 10-fold excess (high, 50 μM) concentrations (along with 10 μM AdR). The complex was diluted 2-fold (with 5 mM NADPH) in the apparatus to initiate the reaction, which was quenched at variable times. The products of the reaction were extracted and quantified by radio-HPLC. […] (The analysis of kinetic modeling is described below.)
P450 11A1 (5 μM) was reconstituted with its redox partners AdR (10 μM) and Adx (5 μM) on ice (10 min) prior to dilution in potassium Hepes buffer (50 mM, pH 7.4) and H2O and the addition of ^3H-cholesterol substrate (4.5 μM, 0.5 Ci/mmol). The concentration of substrate was deliberately kept slightly below the enzyme concentration to ensure that single-turnover conditions were strictly followed. The mixture (0.75 ml) was preincubated (37 °C, 5 min) in a shaking water bath prior to initiation with an equal volume of NADPH solution (5 mM, from a 10 mM stock in 50 mM potassium Hepes buffer, pH 7.4), thus reducing the concentrations of all enzymes and substrate to one-half their starting concentrations. After completing the desired incubation time, an aliquot (200 μl) was removed from the incubation and added to vials containing aqueous HCl (800 μl, 1 M). The quenched reactions were mixed with a vortex device and placed on ice. When the time course was complete, the quenched reactions were mixed with CH2Cl2 (5 ml) to extract reaction products and were centrifuged (10^3g, 5 min, 23 °C) to separate layers, and the organic (bottom) layers were transferred (4 ml) to fresh glass vials. The extraction process was repeated and the two extracts (2 × 4 ml) from each sample were combined to maximize product recovery. Samples (8 ml) were brought to dryness under a stream of nitrogen, and the dried residues were dissolved in CH3OH (75 μl) and transferred to autosampler vials for analysis by radio-HPLC.
Enzyme and NADPH solutions were prepared as described for the benchtop experiments (above) but with the modification that the concentration of Adx was increased to 50 μM (from 5 μM). […] The rapid quench-flow is a rapid mixing device that combines equal volumes (∼19 μl) of two solutions (P450 and NADPH, held at 37 °C) into a central internal chamber to initiate a reaction. After the preset reaction time is completed, the mixture (∼38 μl) is then rapidly combined with a quench solution (1 M HCl, ∼160 μl), expelled from the apparatus, and collected in vials. Utilizing this experimental design, the reaction of enzyme-substrate complex (P450 11A1-Adx-AdR and ^3H-cholesterol) was initiated with NADPH on a variable timescale (0–90 s), pooling five replicates of each time point to maximize sensitivity. The products of each quenched reaction (∼1 ml) were extracted with two volumes (5 ml) of CH2Cl2, brought to dryness, and dissolved in CH3OH as described for the benchtop experiments.
Samples (held at 4 °C) were injected (50 μl) using a Agilent 1100 Series HPLC system on a NovaPak (Waters) octadecylsilane (C18) 3.9 mm × 100 mm (4 μm) column (held at 25 °C) with a flow rate of 1.0 ml min^−1 using a gradient mobile phase of (A) H2O and (B) CH3CN as follows (all in % B, v/v): 0 min, 70%; 10 min, 100%; 35.5 min, 100%; 37 min, 30%; and 40 min, 70%).

Compound: CC(=O)[C@H]1CC[C@H]2[C@@H]3CC=C4C[C@@H](O)CC[C@]4(C)[C@H]3CC[C@]12C [Pregnenolone]
- concentration in single-turnover reaction (10-fold excess (high) Adx, time 0 s): 0 µM
- concentration in single-turnover reaction (10-fold excess (high) Adx, time 0.25 s): 0 µM
- concentration in single-turnover reaction (10-fold excess (high) Adx, time 0.5 s): 0 µM
- concentration in single-turnover reaction (10-fold excess (high) Adx, time 0.75 s): 0.1368 µM
- concentration in single-turnover reaction (10-fold excess (high) Adx, time 1 s): 0.3142 µM
- concentration in single-turnover reaction (10-fold excess (high) Adx, time 2 s): 0.6865 µM
- concentration in single-turnover reaction (10-fold excess (high) Adx, time 2.5 s): 0.7647 µM
- concentration in single-turnover reaction (10-fold excess (high) Adx, time 3.5 s): 1.037 µM
- concentration in single-turnover reaction (10-fold excess (high) Adx, time 5 s): 1.311 µM
- concentration in single-turnover reaction (10-fold excess (high) Adx, time 6 s): 1.385 µM
- concentration in single-turnover reaction (10-fold excess (high) Adx, time 7.5 s): 1.618 µM
- concentration in single-turnover reaction (10-fold excess (high) Adx, time 10 s): 2.345 µM
- concentration in single-turnover reaction (10-fold excess (high) Adx, time 15 s): 2.973 µM
- concentration in single-turnover reaction (10-fold excess (high) Adx, time 20 s): 3.346 µM
- concentration in single-turnover reaction (10-fold excess (high) Adx, time 30 s): 3.763 µM
- concentration in single-turnover reaction (10-fold excess (high) Adx, time 45 s): 4.002 µM
- concentration in single-turnover reaction (10-fold excess (high) Adx, time 60 s): 4.116 µM
- concentration in single-turnover reaction (10-fold excess (high) Adx, time 90 s): 4.189 µM
- concentration in single-turnover reaction (second table, headed 10-fold excess (high) Adx, time 0 s): 0 µM
- concentration in single-turnover reaction (second table, headed 10-fold excess (high) Adx, time 10 s): 1.241 µM
- concentration in single-turnover reaction (second table, headed 10-fold excess (high) Adx, time 25 s): 2.512 µM
- concentration in single-turnover reaction (second table, headed 10-fold excess (high) Adx, time 50 s): 3.582 µM
- concentration in single-turnover reaction (second table, headed 10-fold excess (high) Adx, time 75 s): 4.057 µM
- concentration in single-turnover reaction (second table, headed 10-fold excess (high) Adx, time 100 s): 4.341 µM
- concentration in single-turnover reaction (second table, headed 10-fold excess (high) Adx, time 200 s): 4.5 µM
- concentration in single-turnover reaction (second table, headed 10-fold excess (high) Adx, time 500 s): 4.5 µM
